The source of these data is paper PMC11347161, “Sequence diversity of apidaecin-like peptides arresting the terminating ribosome” (Nucleic Acids Research, 2024).

The test system of this assay is E. coli BL21 cells. Kind of assay: Negative (depletion) selection of clones expressing Api variants, NGS. The format is cell-based. As to conditions: log2-fold change of clone abundance, three replicates, edgeR. On the procedure: Prior to the library screening, pilot experiments were conducted to optimize arabinose concentration. To achieve this, E. coli BL21 cells transformed with the pApi plasmid carrying the wt Api gene were plated on LB/agar plates supplemented with Amp and increasing concentrations of arabinose in the 0.05–0.2% range. […] Subsequent library depletion experiments were carried out on plates containing 0.05% arabinose.
For the negative selection targeted at depleting the clones expressing active Api-like peptides, the 2 ml library stock containing a total of ∼2 × 10^9 colony forming units (cfu) was thawed, diluted 3-fold in LB medium and allowed to recover for 30 min at 37°C. Subsequently, the cultures with the recovered cells were thoroughly mixed, and equal volumes (300 μl) were plated on ten LB/Amp plates supplemented with 2% glucose (for the total library) or ten LB/Amp plates supplemented with 0.05% arabinose (for the library depleted of clones expressing active Api variants). After incubation at 37°C for 16 h, clones were washed off the plates and cell suspensions were used for preparation of the total plasmid, resulting in the pApi(Glu) and pApi(Ara) plasmid preps. The depletion experiments were carried out in three independent replicates.
For deep sequencing of the genes encoding Api-like peptides, the peptide-coding genes were PCR-amplified from the total pApi(Glu) and pApi(Ara) plasmids. Two 50 μl PCR reactions were carried out for each sample using Q5 DNA polymerase (New England Biolabs). The reactions were run in the manufacturer provided buffer, each reaction containing 20 ng of plasmid DNA and 10 pmol of primers Api_Lib_F_i5X and Api_Lib_R_i7X (Supplementary Table S2) which added specific bar codes to the individual samples. PCR amplification was carried out under the following conditions: 98°C, 30 s; 10 cycles of [98°C/10 s, 56°C/20 s, 72°C/10 s]; 72°C 120 s. The PCR products were size-fractionated and extracted from the denaturing 8% polyacrylamide gel. Bar-coded DNA libraries (Supplementary Figure S1B) were combined and sequenced on Illumina MiSeq after being spiked in with PhiX Control v3 library (Illumina) to compensate for sequence diversity of the sample.
Sequencing has generated >350 million total reads for the three unselected samples and > 300 million total reads for the depleted library samples. The raw reads were trimmed to the size of the peptide gene and those containing internal ambiguous bases or being less than 60 bases in length were discarded. The nucleotide sequences were translated into amino acid sequences and the peptides lacking N-terminal methionine or deviating from the size of the expected sequence were eliminated. Peptides with <100 reads in each of the pApi(Glu) samples were also discarded. Subsequently, the filtered data underwent differential abundance analysis using the standard workflow of edgeR within the R/Bioconductor package ([27]). This analysis generated logFC (the log2-fold change of unique peptides between Glu and Ara samples), q-values (adjusted P-values with the FDR correction), and log10 CPM values (log counts per million), detailed in Dataset 1. A volcano plot was generated in R to visualize the differential abundance of unique peptides based on these parameters.

Where [1] appears, read: sheet Negative Selection logFC>1, q<0.005 (putatively functional variants), arabinose vs glucose, endogenously expressed peptide.
The mark [2] stands for this setting: sheet diff-NS-All, induced (0.05% arabinose) vs non-induced (2% glucose), endogenously expressed peptide with N-terminal Met.

On to “MGNNRKVYIGEPRPPYPRL* [endogenously expressed Api library variant K6,G10,E11,Y16 (numbering includes Met)]”, for which the “Ara/Glu: logFC” value under setting [1] is recorded as -4.01 and the “Ara/Glu: logFC” value under setting [2] is -4.01.
For the substance “MLNNIGVQVPKPRPPHPRL* [endogenously expressed Api library variant L2,I5,G6,Q8,V9,K11 (numbering includes Met)]”, under setting [2], the “Ara/Glu: logFC” value was -3.95.
As for “MTNNRKVYEPEPRPPHPRL* [endogenously expressed Api library variant T2,K6,E9,E11 (numbering includes Met)]”, the “Ara/Glu: logFC” value is, setting by setting: under setting [1], -4.06; under setting [2], -4.06.
For “MGNNRNVYIAQPRPYHPRI* [endogenously expressed Api library variant N6,A10,Y15,I19 (numbering includes Met)]”, the “Ara/Glu: logFC” value under setting [2] was -4.88.
